Experimental data: US11203582B2, “Benzamide derivatives for inhibiting endoplasmic reticulum (ER) stress” (The Board of Regents of the University of Oklahoma, priority 2017, dated 2021)
Where two headings read alike, the source gives them in different places.

Assays:
INS-1 cells [1] = assay: Cell survival assay, intracellular ATP (CellTiter-Glo), INS-1 cells treated with Tm; assay type: cell-based, rat
Protocol: A structure-activity-relationship (SAR) study was thus conducted to improve the weak potency of lead compound 1. Newly synthesized or commercially available compounds were tested for their β-cell-protective activity against ER stress in rat INS-1 β-cells. […] The maximum activities and the concentrations that reach half-maximal activity (EC50) of the compounds were evaluated by the degree of increase in viability of INS-1 cells co-treated with the compounds in the presence of Tm compared with Tm treatment alone. Maximum activity value in the tables is reported as % rescue from Tm (0.1 μg/mL)-induced reduction of cell viability. The values for Tm treatment alone and control (DMSO, without Tm) treatment are designated as 0% and 100%, respectively in all tables. EC50 values (the concentrations that reach half-maximal activity) for INS-1 cell viability were calculated with GraphPad Prism from the data of ten 2-fold serial titration points in all tables. All experiments were performed in triplicate in all tables.
INS-1 cells were cultured in RPMI 1640 (Corning, N.Y., USA) supplemented with 10% FBS (Atlanta Biologicals, Norcross, Ga.), HEPES (10 mM, Life Technologies, CA, USA), sodium pyruvate (1 mM, Corning), 2-mercaptoethanol (50 μM, Sigma, St Louis, Mo., USA) and antibiotics (100 UI/mL penicillin and 100 μg/mL streptomycin, Corning). βTC6 cells were cultured in DMEM (Corning) with 15% FBS, sodium pyruvate (1 mM, Corning), non-essential amino acids (1 mM, Thermo, Ill., USA), GlutaMAX (1 mM, Life Technologies) and antibiotics (100 UI/mL penicillin and 100 μg/mL streptomycin). All cells were grown at 37° C. in a humidified 5% CO2 atmosphere.
INS-1 cells or βTC6 cells were seeded at 3×10^3 cells/well in a 384-well plate and treated with compounds at the indicated concentrations. After 3 d treatment, the medium was aspirated and 20 μL/well of CellTiter-Glo reagent (Promega, WI, USA) was added for the detection of intracellular ATP levels. Cell viability was measured with an EnVision multilabel plate reader (PerkinElmer, MA, USA).

INS-1 cells [2] = assay: Live-cell phase-contrast imaging of Tm-treated INS-1 cells; assay type: cell-based, rat; set-up: dose or concentration left out as unconfirmed; details: 48 h, FIG. 3B
Protocol: (A) INS-1 cells were treated with or without Tm (0.1 m/mL) in the presence of 13d at indicated concentrations or DMSO for 24 h. Cleaved caspase-3 and PARP were determined by Western blotting. α-Tubulin was used as a loading control. The data shown are representative of 3 independent experiments. (B) INS-1 cells were treated with or without Tm (0.1 m/mL) in the presence of 13d (0.111M) or DMSO for 48 h, and live-cell phase-contrast images were acquired (magnification 10×). The images shown are representative of 3 independent experiments. (C) TUNEL staining of INS-1 cells. INS-1 cells were treated with 0.111 g/mL of Tm with or without compound 13d for 24 h before TUNEL staining. DAPI was used as a nuclear marker. Magnification is 20×. The images shown are representative of 3 independent experiments. (D) Quantification of TUNEL staining from 20 fields of images. ** P<0.01 compared with Tm treatment alone.

βTC6 cells = assay: Cell survival assay, intracellular ATP, βTC6 cells treated with Tm; assay type: cell-based; details: 72 h, FIG. 2C
Text: The measurement of intracellular ATP level was use as a surrogate assay for cell viability. […] To confirm the authenticity of 13d's protective effect on β-cell viability (not simply an increase in ATP-specific measurement), we used the MTT assay, which measures the activity of NAD(P)H-dependent cellular oxidoreductase enzymes, as an orthogonal method to measure cell viability. […] To determine whether the protective effect of 13d on β-cells is specific to INS-1 cells, another β-cell line, βTC6, was used. […] In addition, compound 13d on its own had no effect on β-cell viability in both cell lines (FIG. 2C-D). […]
INS-1 cells or βTC6 cells were seeded at 3×10^3 cells/well in a 384-well plate and treated with compounds at the indicated concentrations. […] Cell viability was measured with an EnVision multilabel plate reader (PerkinElmer, MA, USA).

INS-1 cells [3] = assay: Glucose-stimulated insulin secretion (ELISA) in Tm-treated INS-1 cells; assay type: cell-based, rat; details: Tm 0.1 μg/mL, 24 h, 20 mM glucose
Protocol: (A-D) INS-1 cells were treated with or without Tm (0.1 m/mL) in the presence of 13d at indicated concentrations or DMSO for 24 h. The mRNA levels of INS1 (A), INS2 (B), PDX1 (C), and MafA (D), were analyzed by qRT-PCR. Relative mRNA levels were normalized against the housekeeping gene Cyclophilin A using the comparative CT method. The results are the means of 3 replicate wells and are representative of 3 independent experiments. * P<0.05 and ** P<0.01 compared with Tm treatment alone. Bars indicate SD. (E) Insulin secretion by INS-1 cells incubated with 1.7 mM and 20 mM glucose in the presence or absence of Tm (0.1 μg/mL) and 13d. Secreted insulin was measured by ELISA after 24 h treatment. * P<0.05. The amount of insulin secreted in response to 1.7 mM glucose in the absence of Tm was set to 1.0 and was normalized with total protein concentration.
INS-1 or primary human islet cells were plated in 96-well plates. The second day, Tm and test compound were added and maintained for 24 h (INS-1) or 48 h (human islets). […] The secreted insulin was measured with insulin ELISA kits (for mouse insulin from Millipore and for human insulin from LifeTech). Cells were lysed with RIPA buffer (50 mM Tris HCl pH 7.4, 1% NP-40, 0.25% sodium deoxycholate, 150 mM NaCl), and total cellular protein was determined with a Bradford protein assay. […]

Compound: O=C(NCc1ccc(C(F)(F)F)cc1)c1cccc(CN2CCCCC2)c1 [Compound 13d, N-(4-trifluoromethylphenmethyl)-3-(N-piperidinyl)methyl benzamide]
- range of concentrations retaining maximum β-cell-protective activity (INS-1 cells [1]; INS-1 cells, Tm 0.1 μg/mL, 72 h, FIG. 2A): 0.16 to 20 µM
- maximum activity (β-cell-protective activity) (INS-1 cells [1]; INS-1 cells, Tm-induced ER stress): ~100%
- EC50 (INS-1 cells [1]; INS-1 cells, Tm-induced ER stress, read-out: EC50): 32 nM
- effect of compound on its own on β-cell viability (INS-1 cells [1]; INS-1 cells, no Tm, 72 h, FIG. 2D): no effect
- Maximum activity (% rescue) (INS-1 cells [1]; Table 5, INS-1 cells, Tm 0.1 μg/mL, 72 h, Tm alone 0%, DMSO control 100%): 97% ± 8%
- viability of INS-1 β-cells under Tm treatment (intracellular ATP) (INS-1 cells [1]; Tm 0.1 μg/mL, 72 h, FIG. 2A): rescued the viability of INS-1 β-cells under Tm treatment in a dose-dependent manner
- EC50 (INS-1 cells [1]; running text b108, read-out: EC50 value against ER stress): ~30 nM
- viable INS-1 cells with Tm co-treatment vs Tm alone (INS-1 cells [2]): significantly more viable INS-1 cells
- viability of βTC6 cells under Tm treatment (intracellular ATP) (βTC6 cells; Tm 0.3 μg/mL): rescued the viability of βTC6 cells in a dose-dependent manner
- effect of compound on its own on β-cell viability (βTC6 cells; βTC6 cells, no Tm): no effect
- glucose-stimulated insulin secretion (GSIS) in Tm-treated cells (INS-1 cells [3]): significantly rescued
